In patent US4891319A, “Protection of proteins and the like” (Quadrant Bioresources Limited, priority 1985, dated 1990):

Columns and labels:
[1] = system: Rh D antigen; experiment: titrated haemagglutination assay of dried human IgM anti-Rh D antibody; assay type: cell-based; conditions: for % activity retained in HA titre: dried antibody, sugar at 5% final concentration
From the text: (§1) They can then be stored at room temperature indefinitely.
3. Trehalose preserves 100% of the antibody activity. A test of five sugars all used at 5% final concentration in a titrated haemagglutination assay gave the following results.
(§2) An additional titration was done to establish whether there is an optimum concentration of trehalose for preservation. The antibodies tested were mouse monoclonal IgM anti A antibody, a mouse monoclonal IgM anti B antibody and a human monoclonal IgM anti Rh antibody used above. They were diluted to an appropriate starting concentration as follows: mouse anti A 1:10, mouse anti B 1:10, human anti Rh (to a final concentration of 20μg/ml). These were titrated 1:3 across a 96 well microtitre plate in Dulbecco's phosphate buffered saline (PBS) in a final volume of 50μl. To each horizontal 8 well row was added 50μl of trehalose at concentrations ranging from 10% w/v to 0.1% w/v. The wells were then dried at 37° overnight. Next day the wells were rehydrated with 100μl distilled water containing buffer sufficient to restore isotonicity. Then 50μl aliquots were transferred to a v-bottom microtitre plate and 25μl of 1% washed human red cells carrying the appropriate blood group antigens added and mixed. Haemagglutination titres were read after 2-3 hours at room temperature. […] With the anti Aantibody any trehalose concentration above 1% preserved maximal activity and with the anti B antibody any concentration above 0.5% preserved maximum activity.

[2] = system: R-phycoerythrin; experiment: Fluorescence of R-phycoerythrin after drying with or without trehalose; assay type: physicochemical, marine Rhodophyte; conditions: trehalose-containing samples, stored in the dark for 10 months
Procedure: The phycobiliprotein R-phycoerythrin was purified from a marine Rhodophyte. This brilliantly fluorescent red protein was blotted onto nitrocellulose membrane or glass fibre filter paper in phosphate buffer with and without 10% w/v added trehalose and dried at room temperature.
R-phycoerythrin at 5 mg/ml was dried at 37° on glass fibre filter paper (Whatman GF/C), cellulose filter paper (Whatman No. 1) or on nitrocellulose membrane (Schleicher & Schull 0.45μ pore size) in the presence of 5% trehalose in solution and in its absence. In the absence of trehalose the spots of dried R-phycoerythrin changed colour to a purplish red and lost >90% of their fluorescence intensity.

[3] = system: A blood group substance; experiment: titrated haemagglutination assay of dried mouse IgM anti A antibody; assay type: cell-based, human; conditions: dried at 37° overnight
Procedure: as §1, §2

[4] = system: B blood group substance; experiment: titrated haemagglutination assay of dried mouse IgM anti B antibody; assay type: cell-based, human; conditions: dried at 37° overnight
Procedure: as §1, §2

[5] = system: rat IgG immunoglobulin; experiment: indirect agglutination titre of dried or fresh sheep antiserum K237; assay type: cell-based
Procedure: A sheep antiserum to rat IgG immunoglobulin (K237) was titrated in a 96 well flat bottom microtitre plate as 1:3 steps (25μl serum in 50μl PBS). 50μl of 5% w/v trehalose in D.W was then added and the plate dried at 37° in a warm room for 48 hr.
The wells were reconstituted with 100μl distilled water. 50μl of the contents of each well were transferred to v bottom microtitre plates, DA rate erythrocytes were washed ×3 in saline and sensitized by incubation for 2 hr at RT with tissue culture supernatant of the monoclonal antibody R3/13 HLK which is specific for the A^a class 1 transplantation antigen on DA erythrocytes. The red cells were then washed x3 in saline and resuspended at 1% v/v in PBS +1% BSA. The sensitized rat erythrocytes were added. At the same time fresh K237 serum was titrated as above as a positive non-dried control.
The capacity for the dried and fresh serum to cause indirect agglutination of the red cells sensitized by the rat antibody R3/13 was then read.

[6] = system: rat lymphocytes; experiment: Fluorescence microscopy of labelled rat lymphocytes; assay type: cell-based; conditions: dried with 10% added trehalose
From the text: Fluorescence microscopy using R-phycoerythrin as the fluorochrome was previously very inefficient because of fluorescence fading in aqueous mountants. This can be prevented by drying of the preparation and mounting in a non-polar mountant such as Gurr's Fluoromount, but drying destroys more than 90% of the fluorescence of R-phycoerythrin. This is prevented by drying in the presence of trehalose in the final buffer.
The anti CD4 monoclonal antibody W3/25 was coupled with biotin-linker-arm N-hydroxysuccinimide ester and used in saturating doses to label the T helper subset of rat lymphocytes. These labelled cells were then detected with a second stage staining using a streptavidin-R-phycoerythrin conjugate. After a final wash the cells were divided into four aliquots and one was examined in the FACS to illustrate correct labelling with these reagents. […] Smears were made and dried and then mounted in Fluoromount. The fourth aliquot was mounted wet in PBS. All three preparations were examined in a Zeiss photomicroscope II with Ploem optics.

[7] = system: alkaline phosphate from calf intestine; experiment: Preservation of dried alkaline phosphatase activity; assay type: biochemical; conditions: dried at 37° with 5% trehalose, 4 weeks at room temperature
Procedure: The mammalian enzyme alkaline phosphate from calf intestine was serially diluted in phosphate buffered saline (PBS) and added to the wells of a NUNC Immunoplate. After overnight incubation to bind the enzyme to the plastic surface, the wells were washed, shaken free of liquid, and dried at 37° in the presence or absence of 5% trehalose in distilled water. […] At the end of this time the wells were rehydrated with distilled water and substrate added. A positive control consisted of fresh dilutions of the enzyme. The activity of one enzyme was measured by the standard test of […] p-nitrophenylphosphate and monitoring the optical density at 405 nm.

[8] = system: guinea pig serum complement; experiment: CH50 assay, preservation of dried serum complement; assay type: cell-based
Procedure: Guinea pig serum was prepared fresh and frozen in aliquots at -196° until use. As target cells, washed sheep erythrocytes (SRBC) which had been stored in Alsever's solution for up to 2 weeks were incubated with the bovine monoclonal anti-Forrsman antibody 94A1-AZA for 1 hr at 4° and then washed in complement fixation diluent (CFD). Freshly thawed guinea pig serum was diluted in CFD where required in flat bottom microtitre plate (NUNC, Denmark) and trehalose added at various concentrations. […] For the CH50 assay (P.J. Lachmann and M.J. Hobart in "Handbook of Experimental Immunology" ed. D.M. Weir, Blackwell 1978), dried or fresh complement was titrated out in a U bottom microtitre plate and sensitised SRBC added to a final concentration of 2%. […] The endpoint was measured as the cup in which 50% of the erythrocytes remained as a button.

[9] = system: fixed red cells; experiment: Drying of antigen- or antibody-coupled fixed red blood cells; assay type: cell-based; conditions: dried in the presence of trehalose
From the text: Upon rehydration the coupled, fixed red cells can be resuspended to form a perfect single cell suspension which then behaves as a fresh red cell suspension does in haemagglutination assays.

[10] = system: cellular organelles; conditions: loss of bound water; cited from earlier work
[11] = system: rat IgG; experiment: indirect haemagglutination titre of K237 antiserum dried on matrices and eluted; assay type: cell-based; conditions: dried on Whatman No. 1 cellulose paper
Procedure: A number of different matrices were examined for use as a trehalose support. They include pure cellulose paper (Whatman No. 1 filter paper), glass fibre paper (What man GF/A and GF/C papers), polyurethane sponge foam and porous polyethylene sheet. These matrices were soaked in trehalose dissolved in distilled water at various concentrations from 10% down to 1% and dried at 37°. […] Various sera were applied to the paper and dried at 37°. After various periods of storage at 37+, samples were eluted with distilled water or normal saline; usually used in a volume 2-4 times that of the original serum sample so that their potency could be directly compared with fresh non-dried samples of the same sera.
K237, a sheep antiserum against rat IgG, was dried on to 10% trehalose-impregnated cellulose paper, glass fibre paper and porous polyethylene sheet and stored for 7 days at 37° C.
The paper or sheet was eluted with 4 volumes of normal saline and titrated in an indirect haemagllutination assay for its ability to agglutinate DA strain rat erythrocytes coated with a monoclonal antibody (JN2/85) against the class 1 antigens expressed on the erythrocyte membranes.
The same antiserum was then tested by drying on the Whatman No. 1 cellulose paper in the presence of various sugars and in the absence of sugar.

[12] = molar basis; cited from earlier work
[13] = system: haemoglobin; experiment: Spectral properties and gas exchange of dried haemoglobin; assay type: physicochemical; conditions: oxy and carboxy forms dried in the presence of trehalose
From the text: Many macromolecular functions require mobility of the macromolecule e.g. antibodies have to physically move into close proximity to their antigen in order for binding to occur through electrostatic and hydrophobic interactions. The same is true of enzymes binding their substrates. Minor molecular motion is also required for other macromolecular functions. Thus haemoglobin undergoes rotation and movement of certain amino acids during the reversible binding of oxygen and carbon dioxide. None of this molecular mobility is observed in the dry state.
In contrast, the fluorescence of R-phycoerythrin involves "movement" only on the sub atomic level. Absorption of light energy at low wavelengths e.g. (488 nm) causes electrons in the chromophores to shift to higher energy orbits. Fluorescence at longer wavelengths is due to the emission of photons when these electrons jump back to lower energy orbits. […] This method is therefore of great interest in the application of biological (and synthetic) macromolecules in new electronic applications. Examples include proton and electron pumping (such as is mediated, on exposure to light, by bacteriorhodopsin and rhodopsin). […]

[14] = system: horseradish peroxidase; experiment: Preservation of dried horseradish peroxidase activity; assay type: biochemical; conditions: dried with or without trehalose; compared with alkaline phosphatase

## OC[C@H]1O[C@H](O[C@H]2[C@H](O)[C@@H](O)C(O)O[C@@H]2CO)[C@H](O)[C@@H](O)[C@@H]1O (mixture of isomers) [maltose, reference compound]
[1]
  % activity retained in HA titre: 11.1%

## OC[C@H]1O[C@H](O[C@H]2O[C@H](CO)[C@@H](O)[C@H](O)[C@H]2O)[C@H](O)[C@@H](O)[C@@H]1O [Trehalose, α-D-glucopyranosyl-α-D-glucopyranoside]
[2]
  fluorescence after storage: without loss of fluorescence
[1]
  % activity retained in HA titre: 100%
[1]; human antibody, 2.5% final trehalose, dried at 37° overnight
  maximum preservation of activity: 100%
[1]; human antibody, 5% final trehalose concentration
  change in titre: slight decrease in titre
[1]; human antibody, at the drying stage
  final concentration of trehalose at maximum preservation: 2.5%
[3]
  trehalose concentration preserving maximal activity: above 1%
[4]
  trehalose concentration preserving maximum activity: above 0.5%
[5]; Dried + Trehalose (5% w/v, 37°, 48 hr)
  Titre (cups): 7
[5]; dried with trehalose
  antibody activity of whole serum preserved: 100%
[6]
  brilliantly fluorescent cells: 75%
  fading of fluorescent cells: did not fade
[6]; several weeks
  fading of labelled cells on repeated examination: no detectable fading
[7]
  retention of enzyme activity: Full retention of activity
[8]; 25% serum, trehalose 0.15M and above
  complement activity preserved: 100%
[8]; 50% normal serum, trehalose 0.22M and above
  complement activity preserved: 100%
[8]; dried with trehalose and reconstituted
  prevention of loss of complement activity: completely prevented
[8]; up to 0.5M, any concentration of serum
  inhibition by high concentrations of trehalose: not inhibitory
[9]
  function of antibody or antigen coupled to fixed red cell membrane: completely preserves the function of the antibody or antigen
  preservation and resuspension of fixed red cells: completely preserves the fixed red cells themselves
[10]
  protection of cellular organelles compared with other carbohydrates: significantly superior to other carbohydrates

## O=C[C@H](O)[C@@H](O)[C@H](O)[C@H](O)CO [glucose, reference compound]
[1]
  % activity retained in HA titre: 1.2%

## OC[C@H]1O[C@H](OC[C@H]2O[C@H](O[C@]3(CO)O[C@H](CO)[C@@H](O)[C@@H]3O)[C@H](O)[C@@H](O)[C@@H]2O)[C@H](O)[C@@H](O)[C@H]1O [raffinose, reference compound]
[1]
  % activity retained in HA titre: 3.7%
[11]
  difference from the untreated paper: No significant difference

## OC[C@H]1O[C@@](CO)(O[C@H]2O[C@H](CO)[C@@H](O)[C@H](O)[C@H]2O)[C@@H](O)[C@@H]1O [sucrose, reference compound]
[1]
  % activity retained in HA titre: 11.1%
[11]
  difference from the untreated paper: No significant difference

## R Phycoerythrin
[12]
  brightness relative to fluorescein: 20 times

## haemoglobin
[13]
  spectral properties after drying: retain their spectral properties

## horseradish peroxidase
[14]
  retention of enzyme activity: Identical results
